# Source: patent US10844077B2, “Thiazolyl-containing compounds for treating proliferative diseases” (Dana-Farber Cancer Institute, Inc., priority 2014, dated 2020)
# Like-named read-outs stand apart in the source and are kept apart here.
# Assays:
# Format in all cases: binding
# broad panel of kinases [1] = biological target: broad panel of kinases (Homo sapiens, UniProt P45983); conditions: JNK1; 1 μM
# broad panel of kinases [2] = biological target: broad panel of kinases (Homo sapiens, UniProt Q15835); conditions: GRK1; 1 μM
# broad panel of kinases [3] = biological target: broad panel of kinases (Homo sapiens, UniProt P07949, V804M); conditions: RET(V804M); 1 μM
# broad panel of kinases (Homo sapiens, UniProt P07949, V804M), sequence (P07949 29-1114 V804M limits assumed): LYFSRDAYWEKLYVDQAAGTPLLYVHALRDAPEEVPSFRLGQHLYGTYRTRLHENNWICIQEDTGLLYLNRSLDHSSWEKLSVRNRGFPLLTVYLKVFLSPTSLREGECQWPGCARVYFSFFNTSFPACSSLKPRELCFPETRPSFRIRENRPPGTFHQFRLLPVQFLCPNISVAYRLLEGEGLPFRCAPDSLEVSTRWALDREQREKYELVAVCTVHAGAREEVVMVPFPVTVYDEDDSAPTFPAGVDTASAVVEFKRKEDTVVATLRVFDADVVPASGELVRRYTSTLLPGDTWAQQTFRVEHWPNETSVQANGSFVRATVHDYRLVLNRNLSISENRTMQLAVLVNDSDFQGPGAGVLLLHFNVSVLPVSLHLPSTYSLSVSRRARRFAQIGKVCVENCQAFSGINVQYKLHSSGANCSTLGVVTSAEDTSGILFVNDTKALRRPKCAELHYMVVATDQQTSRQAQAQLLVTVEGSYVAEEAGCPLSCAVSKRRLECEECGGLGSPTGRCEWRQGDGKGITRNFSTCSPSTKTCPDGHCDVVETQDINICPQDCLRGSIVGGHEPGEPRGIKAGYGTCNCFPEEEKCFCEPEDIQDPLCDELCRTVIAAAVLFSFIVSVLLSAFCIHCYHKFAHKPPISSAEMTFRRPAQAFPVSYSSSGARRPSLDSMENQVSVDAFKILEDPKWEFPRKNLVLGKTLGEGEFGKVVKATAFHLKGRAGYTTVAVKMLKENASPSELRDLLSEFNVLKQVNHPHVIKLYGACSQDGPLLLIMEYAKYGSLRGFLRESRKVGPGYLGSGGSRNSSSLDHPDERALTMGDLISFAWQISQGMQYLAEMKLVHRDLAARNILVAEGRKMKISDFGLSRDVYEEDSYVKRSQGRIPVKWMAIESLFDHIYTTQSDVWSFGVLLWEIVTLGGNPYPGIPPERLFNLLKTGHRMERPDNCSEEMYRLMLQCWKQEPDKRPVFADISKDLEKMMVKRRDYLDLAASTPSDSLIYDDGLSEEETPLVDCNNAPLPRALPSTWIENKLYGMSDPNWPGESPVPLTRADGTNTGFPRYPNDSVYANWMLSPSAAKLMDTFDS
# broad panel of kinases [4] = biological target: broad panel of kinases (Homo sapiens, UniProt P51817); conditions: PRKX; 1 μM
# broad panel of kinases [5] = biological target: broad panel of kinases (Homo sapiens, UniProt Q8NFD2); conditions: ANKK1; 1 μM
# broad panel of kinases [6] = biological target: broad panel of kinases (Homo sapiens, UniProt P42338); conditions: PIK3CB; 1 μM
# broad panel of kinases [7] = biological target: broad panel of kinases (Homo sapiens, UniProt P10721); conditions: 1 μM
# broad panel of kinases (Homo sapiens, UniProt P10721), sequence (P10721 26-976 limits assumed): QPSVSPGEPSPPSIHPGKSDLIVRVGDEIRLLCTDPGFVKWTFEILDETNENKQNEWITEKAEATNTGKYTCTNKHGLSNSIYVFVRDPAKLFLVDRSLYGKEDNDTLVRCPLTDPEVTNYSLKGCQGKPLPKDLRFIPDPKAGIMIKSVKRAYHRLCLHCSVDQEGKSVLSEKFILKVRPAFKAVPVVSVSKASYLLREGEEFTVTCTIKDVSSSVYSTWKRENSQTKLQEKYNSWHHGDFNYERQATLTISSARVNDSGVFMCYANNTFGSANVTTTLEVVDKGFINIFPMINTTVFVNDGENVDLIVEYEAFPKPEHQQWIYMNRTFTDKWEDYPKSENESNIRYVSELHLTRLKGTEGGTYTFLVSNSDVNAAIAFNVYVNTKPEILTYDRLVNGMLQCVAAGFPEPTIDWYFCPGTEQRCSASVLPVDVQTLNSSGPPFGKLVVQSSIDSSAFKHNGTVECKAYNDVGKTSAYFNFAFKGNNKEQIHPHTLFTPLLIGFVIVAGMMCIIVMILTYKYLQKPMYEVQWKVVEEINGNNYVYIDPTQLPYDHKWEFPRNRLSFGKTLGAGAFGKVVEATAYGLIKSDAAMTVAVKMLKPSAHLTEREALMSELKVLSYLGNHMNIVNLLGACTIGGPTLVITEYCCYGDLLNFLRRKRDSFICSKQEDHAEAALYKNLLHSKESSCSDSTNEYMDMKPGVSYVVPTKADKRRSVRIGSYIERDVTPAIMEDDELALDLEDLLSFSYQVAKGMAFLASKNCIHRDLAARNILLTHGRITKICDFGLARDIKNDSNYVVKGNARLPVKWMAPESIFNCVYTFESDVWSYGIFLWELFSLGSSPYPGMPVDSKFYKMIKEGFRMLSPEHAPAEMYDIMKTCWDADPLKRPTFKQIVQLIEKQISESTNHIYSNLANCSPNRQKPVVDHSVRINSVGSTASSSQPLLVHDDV
# broad panel of kinases [8] = biological target: broad panel of kinases (Homo sapiens, UniProt P54646); conditions: AMPK-alpha2; 1 μM
# broad panel of kinases [9] = biological target: broad panel of kinases (Homo sapiens, UniProt O43353); conditions: RIPK2; 1 μM
# broad panel of kinases [10] = biological target: broad panel of kinases (Homo sapiens, UniProt Q15349); conditions: 1 μM
# broad panel of kinases [11] = biological target: broad panel of kinases (Homo sapiens, UniProt Q12852); conditions: DLK; 1 μM
# broad panel of kinases [12] = biological target: broad panel of kinases (Homo sapiens, UniProt Q8NE63); conditions: HIPK4; 1 μM
# broad panel of kinases [13] = biological target: broad panel of kinases (Homo sapiens, UniProt O00750); conditions: PIK3C2B; 1 μM
# broad panel of kinases [14] = biological target: broad panel of kinases (Homo sapiens, UniProt Q8IYT8); conditions: ULK2; 1 μM
# broad panel of kinases [15] = biological target: broad panel of kinases (Homo sapiens, UniProt O95382); conditions: ASK2; 1 μM
# broad panel of kinases [16] = biological target: broad panel of kinases (Homo sapiens, UniProt P15056, V600E); conditions: BRAF(V600E); 1 μM
# broad panel of kinases [17] = biological target: broad panel of kinases (Homo sapiens, UniProt Q9Y2U5); conditions: MAP3K2; 1 μM
# broad panel of kinases [18] = biological target: broad panel of kinases (Homo sapiens, UniProt P10721, D816H); conditions: KIT(D816H); 1 μM
# broad panel of kinases (Homo sapiens, UniProt P10721, D816H), sequence (P10721 26-976 D816H limits assumed): as the sequence (P10721 26-976 limits assumed) above, with D791H counted along it
# broad panel of kinases [19] = biological target: broad panel of kinases (Homo sapiens, UniProt Q6ZWH5); conditions: NEK10; 1 μM
# broad panel of kinases [20] = biological target: broad panel of kinases (Homo sapiens, UniProt P07949); conditions: RET; 1 μM
# broad panel of kinases (Homo sapiens, UniProt P07949), sequence (P07949 29-1114 limits assumed): as the sequence (P07949 29-1114 V804M limits assumed) above, with M776V counted along it
# broad panel of kinases [21] = biological target: broad panel of kinases (Homo sapiens, UniProt Q9HCP0); conditions: CSNK1G1; 1 μM
# broad panel of kinases [22] = biological target: broad panel of kinases (Homo sapiens, UniProt Q04912); conditions: MST1R; 1 μM
# broad panel of kinases [23] = biological target: broad panel of kinases (Homo sapiens, UniProt P57058); conditions: HUNK; 1 μM
# broad panel of kinases [24] = biological target: broad panel of kinases (Homo sapiens, UniProt P42679); conditions: CTK; 1 μM
# broad panel of kinases [25] = biological target: broad panel of kinases (Homo sapiens, UniProt P49840); conditions: GSK3A; 1 μM
# broad panel of kinases (Homo sapiens, UniProt P49840), sequence (P49840 2-483 limits assumed): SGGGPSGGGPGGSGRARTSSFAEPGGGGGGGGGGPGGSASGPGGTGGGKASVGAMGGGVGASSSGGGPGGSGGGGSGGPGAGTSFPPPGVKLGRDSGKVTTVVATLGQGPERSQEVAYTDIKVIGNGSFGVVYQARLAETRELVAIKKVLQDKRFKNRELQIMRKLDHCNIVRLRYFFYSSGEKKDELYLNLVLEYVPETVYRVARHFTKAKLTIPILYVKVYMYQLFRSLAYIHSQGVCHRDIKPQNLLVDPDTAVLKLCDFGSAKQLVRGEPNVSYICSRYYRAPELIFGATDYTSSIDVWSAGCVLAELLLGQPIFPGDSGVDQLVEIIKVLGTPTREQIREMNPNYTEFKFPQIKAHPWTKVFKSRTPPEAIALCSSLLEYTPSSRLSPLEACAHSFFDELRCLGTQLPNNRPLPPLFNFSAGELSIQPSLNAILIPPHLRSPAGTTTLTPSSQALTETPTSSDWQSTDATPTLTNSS
# broad panel of kinases [26] = biological target: broad panel of kinases (Homo sapiens, UniProt Q6DT37); conditions: DMPK2; 1 μM
# broad panel of kinases [27] = biological target: broad panel of kinases (Homo sapiens, UniProt P24941); conditions: CDK2; 1 μM
# broad panel of kinases [28] = biological target: broad panel of kinases (Homo sapiens, UniProt Q9UQM7); conditions: CAMK2A; 1 μM
# broad panel of kinases [29] = biological target: broad panel of kinases (Homo sapiens, UniProt P48736); conditions: PIK3CG; 1 μM
# broad panel of kinases [30] = biological target: broad panel of kinases (Homo sapiens, UniProt Q9H4B4); conditions: PLK3; 1 μM
# broad panel of kinases [31] = biological target: broad panel of kinases (Homo sapiens, UniProt P54764); conditions: EPHA4; 1 μM
# broad panel of kinases (Homo sapiens, UniProt P54764), sequence (P54764 20-986 limits assumed): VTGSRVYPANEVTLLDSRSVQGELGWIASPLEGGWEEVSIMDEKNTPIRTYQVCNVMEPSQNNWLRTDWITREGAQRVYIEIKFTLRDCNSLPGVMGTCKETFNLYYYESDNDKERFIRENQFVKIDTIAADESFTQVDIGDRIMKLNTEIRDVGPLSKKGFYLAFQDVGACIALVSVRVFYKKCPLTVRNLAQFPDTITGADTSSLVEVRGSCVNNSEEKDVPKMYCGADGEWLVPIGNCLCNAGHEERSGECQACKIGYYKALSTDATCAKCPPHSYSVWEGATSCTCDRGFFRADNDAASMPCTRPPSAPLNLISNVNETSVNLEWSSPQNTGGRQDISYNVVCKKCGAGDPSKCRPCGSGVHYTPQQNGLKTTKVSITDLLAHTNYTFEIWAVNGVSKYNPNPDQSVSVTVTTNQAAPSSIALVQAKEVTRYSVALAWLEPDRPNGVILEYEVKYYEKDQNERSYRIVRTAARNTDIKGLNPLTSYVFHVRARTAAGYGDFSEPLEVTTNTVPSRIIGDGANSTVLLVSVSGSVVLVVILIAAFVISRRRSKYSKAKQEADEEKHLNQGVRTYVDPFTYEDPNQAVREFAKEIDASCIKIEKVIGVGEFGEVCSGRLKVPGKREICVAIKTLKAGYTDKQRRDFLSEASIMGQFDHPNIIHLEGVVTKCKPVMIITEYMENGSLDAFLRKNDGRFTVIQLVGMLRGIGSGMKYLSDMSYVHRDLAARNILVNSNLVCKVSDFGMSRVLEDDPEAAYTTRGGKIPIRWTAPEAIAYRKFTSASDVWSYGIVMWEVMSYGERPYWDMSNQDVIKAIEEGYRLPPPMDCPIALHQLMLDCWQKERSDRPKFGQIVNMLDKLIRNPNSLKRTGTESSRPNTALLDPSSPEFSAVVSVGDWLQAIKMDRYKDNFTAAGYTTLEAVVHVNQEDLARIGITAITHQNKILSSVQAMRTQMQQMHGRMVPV
# broad panel of kinases [32] = biological target: broad panel of kinases (Homo sapiens, UniProt P51956); conditions: NEK3; 1 μM
# broad panel of kinases [33] = biological target: broad panel of kinases (Homo sapiens, UniProt P80192); conditions: MLK1; 1 μM
# broad panel of kinases [34] = biological target: broad panel of kinases (Homo sapiens, UniProt Q04759); conditions: PRKCQ; 1 μM
# broad panel of kinases [35] = biological target: broad panel of kinases (Homo sapiens, UniProt Q16512); conditions: PKN1; 1 μM
# broad panel of kinases (Homo sapiens, UniProt Q16512), sequence (Q16512 2-942 limits assumed): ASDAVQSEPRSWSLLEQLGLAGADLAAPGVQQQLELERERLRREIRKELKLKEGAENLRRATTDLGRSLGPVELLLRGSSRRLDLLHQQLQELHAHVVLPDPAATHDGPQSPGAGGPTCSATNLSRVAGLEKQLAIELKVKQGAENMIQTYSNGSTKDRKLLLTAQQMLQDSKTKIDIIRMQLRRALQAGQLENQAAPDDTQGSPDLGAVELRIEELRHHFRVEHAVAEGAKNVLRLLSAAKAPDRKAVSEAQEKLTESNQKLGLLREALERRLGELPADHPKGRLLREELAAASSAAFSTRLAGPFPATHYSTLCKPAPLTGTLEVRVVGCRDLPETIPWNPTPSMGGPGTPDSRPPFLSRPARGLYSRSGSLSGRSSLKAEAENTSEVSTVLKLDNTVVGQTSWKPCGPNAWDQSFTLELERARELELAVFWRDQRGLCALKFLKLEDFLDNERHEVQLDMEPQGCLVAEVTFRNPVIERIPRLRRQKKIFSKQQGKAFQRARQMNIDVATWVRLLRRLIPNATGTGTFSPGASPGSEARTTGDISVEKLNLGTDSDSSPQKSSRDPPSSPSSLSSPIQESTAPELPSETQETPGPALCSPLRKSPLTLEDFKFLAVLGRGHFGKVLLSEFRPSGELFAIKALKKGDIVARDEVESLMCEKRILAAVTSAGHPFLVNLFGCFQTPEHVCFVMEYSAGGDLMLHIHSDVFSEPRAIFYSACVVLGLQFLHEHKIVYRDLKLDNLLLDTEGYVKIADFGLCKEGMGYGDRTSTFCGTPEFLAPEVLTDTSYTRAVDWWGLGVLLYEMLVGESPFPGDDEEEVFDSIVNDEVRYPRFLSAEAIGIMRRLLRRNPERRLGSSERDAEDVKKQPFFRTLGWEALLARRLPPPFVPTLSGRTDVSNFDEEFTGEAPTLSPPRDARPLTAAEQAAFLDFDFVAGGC
# broad panel of kinases [36] = biological target: broad panel of kinases (Homo sapiens, UniProt P0C264); conditions: SgK110; 1 μM
# broad panel of kinases [37] = biological target: broad panel of kinases (Homo sapiens, UniProt Q02763); conditions: TIE2; 1 μM
compound,measurement,setting,value
C=CC(=O)N1CC[C@H](Nc2nc(CN3CCOCC3)cc(Nc3ncc(C(=O)Nc4c(C)cccc4C)s3)n2)C1 [Example I-2],percent of control binding remaining (lower = stronger binding),broad panel of kinases [1],94%
same,percent of control binding remaining (lower = stronger binding),broad panel of kinases [2],94%
same,percent of control binding remaining (lower = stronger binding),broad panel of kinases [3],100%
same,percent of control binding remaining (lower = stronger binding),broad panel of kinases [4],100%
same,percent of control binding remaining (lower = stronger binding),broad panel of kinases [5],94%
same,percent of control binding remaining (lower = stronger binding),broad panel of kinases [6],100%
same,percent of control binding remaining (lower = stronger binding),broad panel of kinases [7]; KIT-autoinhibited,1.8%
same,percent of control binding remaining (lower = stronger binding),broad panel of kinases [7]; KIT,0%
same,percent of control binding remaining (lower = stronger binding),broad panel of kinases [8],92%
same,percent of control binding remaining (lower = stronger binding),broad panel of kinases [9],14%
same,percent of control binding remaining (lower = stronger binding),broad panel of kinases [10]; RSK3(Kin.Dom.1-N-terminal),93%
same,percent of control binding remaining (lower = stronger binding),broad panel of kinases [10]; RSK3(Kin.Dom.2-C-terminal),100%
same,percent of control binding remaining (lower = stronger binding),broad panel of kinases [11],98%
same,percent of control binding remaining (lower = stronger binding),broad panel of kinases [12],100%
same,percent of control binding remaining (lower = stronger binding),broad panel of kinases [13],86%
same,percent of control binding remaining (lower = stronger binding),broad panel of kinases [14],89%
same,percent of control binding remaining (lower = stronger binding),broad panel of kinases [15],92%
same,percent of control binding remaining (lower = stronger binding),broad panel of kinases [16],1.6%
same,percent of control binding remaining (lower = stronger binding),broad panel of kinases [17],96%
same,percent of control binding remaining (lower = stronger binding),broad panel of kinases [18],14%
same,percent of control binding remaining (lower = stronger binding),broad panel of kinases [19],93%
same,percent of control binding remaining (lower = stronger binding),broad panel of kinases [20],100%
same,percent of control binding remaining (lower = stronger binding),broad panel of kinases [21],100%
same,percent of control binding remaining (lower = stronger binding),broad panel of kinases [22],99%
same,percent of control binding remaining (lower = stronger binding),broad panel of kinases [23],100%
same,percent of control binding remaining (lower = stronger binding),broad panel of kinases [24],67%
same,percent of control binding remaining (lower = stronger binding),broad panel of kinases [25],100%
same,percent of control binding remaining (lower = stronger binding),broad panel of kinases [26],51%
same,percent of control binding remaining (lower = stronger binding),broad panel of kinases [27],100%
same,percent of control binding remaining (lower = stronger binding),broad panel of kinases [28],86%
same,percent of control binding remaining (lower = stronger binding),broad panel of kinases [29],100%
same,percent of control binding remaining (lower = stronger binding),broad panel of kinases [30],99%
same,percent of control binding remaining (lower = stronger binding),broad panel of kinases [31],0%
same,percent of control binding remaining (lower = stronger binding),broad panel of kinases [32],94%
same,percent of control binding remaining (lower = stronger binding),broad panel of kinases [33],89%
same,percent of control binding remaining (lower = stronger binding),broad panel of kinases [34],94%
same,percent of control binding remaining (lower = stronger binding),broad panel of kinases [35],100%
same,percent of control binding remaining (lower = stronger binding),broad panel of kinases [36],59%
same,percent of control binding remaining (lower = stronger binding),broad panel of kinases [37],100%
C=CC(=O)N1CC[C@H](Nc2nccc(Nc3ncc(C(=O)Nc4c(C)cccc4C)s3)n2)C1 [Example I-3],percent of control binding remaining (lower = stronger binding),broad panel of kinases [1],81%
same,percent of control binding remaining (lower = stronger binding),broad panel of kinases [2],97%
same,percent of control binding remaining (lower = stronger binding),broad panel of kinases [3],100%
same,percent of control binding remaining (lower = stronger binding),broad panel of kinases [4],100%
same,percent of control binding remaining (lower = stronger binding),broad panel of kinases [5],100%
same,percent of control binding remaining (lower = stronger binding),broad panel of kinases [6],100%
same,percent of control binding remaining (lower = stronger binding),broad panel of kinases [7]; KIT-autoinhibited,2.6%
same,percent of control binding remaining (lower = stronger binding),broad panel of kinases [7]; KIT,0%
same,percent of control binding remaining (lower = stronger binding),broad panel of kinases [8],78%
same,percent of control binding remaining (lower = stronger binding),broad panel of kinases [9],31%
same,percent of control binding remaining (lower = stronger binding),broad panel of kinases [10]; RSK3(Kin.Dom.1-N-terminal),89%
same,percent of control binding remaining (lower = stronger binding),broad panel of kinases [10]; RSK3(Kin.Dom.2-C-terminal),97%
same,percent of control binding remaining (lower = stronger binding),broad panel of kinases [11],100%
same,percent of control binding remaining (lower = stronger binding),broad panel of kinases [12],97%
same,percent of control binding remaining (lower = stronger binding),broad panel of kinases [13],47%
same,percent of control binding remaining (lower = stronger binding),broad panel of kinases [14],91%
same,percent of control binding remaining (lower = stronger binding),broad panel of kinases [15],98%
same,percent of control binding remaining (lower = stronger binding),broad panel of kinases [16],2.1%
same,percent of control binding remaining (lower = stronger binding),broad panel of kinases [17],98%
same,percent of control binding remaining (lower = stronger binding),broad panel of kinases [18],23%
same,percent of control binding remaining (lower = stronger binding),broad panel of kinases [19],90%
same,percent of control binding remaining (lower = stronger binding),broad panel of kinases [20],86%
same,percent of control binding remaining (lower = stronger binding),broad panel of kinases [21],100%
same,percent of control binding remaining (lower = stronger binding),broad panel of kinases [22],100%
same,percent of control binding remaining (lower = stronger binding),broad panel of kinases [23],83%
same,percent of control binding remaining (lower = stronger binding),broad panel of kinases [24],81%
same,percent of control binding remaining (lower = stronger binding),broad panel of kinases [25],97%
same,percent of control binding remaining (lower = stronger binding),broad panel of kinases [26],66%
same,percent of control binding remaining (lower = stronger binding),broad panel of kinases [27],100%
same,percent of control binding remaining (lower = stronger binding),broad panel of kinases [28],83%
same,percent of control binding remaining (lower = stronger binding),broad panel of kinases [29],100%
same,percent of control binding remaining (lower = stronger binding),broad panel of kinases [30],97%
same,percent of control binding remaining (lower = stronger binding),broad panel of kinases [31],0%
same,percent of control binding remaining (lower = stronger binding),broad panel of kinases [32],95%
same,percent of control binding remaining (lower = stronger binding),broad panel of kinases [33],92%
same,percent of control binding remaining (lower = stronger binding),broad panel of kinases [34],98%
same,percent of control binding remaining (lower = stronger binding),broad panel of kinases [35],81%
same,percent of control binding remaining (lower = stronger binding),broad panel of kinases [36],95%
same,% change compared to control,broad panel of kinases [37],100%
